Data reported in ChEMBL document CHEMBL1268934, “Design, synthesis, and subtype selectivity of 3,6-disubstituted β-carbolines at Bz/GABA(A)ergic receptors. SAR and studies directed toward agents for treatment of alcohol abuse” (Bioorg Med Chem, 2010).

Assays:
[1] = biological target: GABA-A receptor; alpha-5/beta-3/gamma-2 (Homo sapiens) (UniProt P18507+P28472+P31644); assay: Agonist activity at human recombinant GABAA alpha-5-beta-3-gamma-2 receptor expressed in Xenopus oocytes at 1 to 10 uM by patch clamp technique; type: functional, cell-based; conditions: Oocyte
[2] = biological target: GABA-A receptor; alpha-1/beta-3/gamma-2 (Homo sapiens) (UniProt P14867+P18507+P28472); assay: Agonist activity at human recombinant GABAA alpha-1-beta-3-gamma-2 receptor expressed in Xenopus oocytes at 1 to 10 uM by patch clamp technique; type: functional, cell-based; conditions: Oocyte
[3] = biological target: GABA-A receptor; alpha-3/beta-3/gamma-2 (Homo sapiens) (UniProt P18507+P28472+P34903); assay: Agonist activity at human recombinant GABAA alpha-3-beta-3-gamma-2 receptor expressed in Xenopus oocytes at 1 to 10 uM by patch clamp technique; type: functional, cell-based; conditions: Oocyte
[4] = biological target: GABA-A receptor; alpha-6/beta-3/gamma-2 (Homo sapiens, UniProt P18507+P28472+Q16445); assay: Displacement of [3H]flunitrazepam from human recombinant GABAA alpha-6-beta-3-gamma-2 receptor expressed in HEK cells by liquid scintillation counting; type: cell-based, HEK293
[5] = biological target: T1, GABA-A receptor; alpha-5/beta-3/gamma-2 (Homo sapiens, UniProt P18507+P28472+P31644); assay: Displacement of [3H]flunitrazepam from human recombinant GABAA alpha-5-beta-3-gamma-2 receptor expressed in HEK cells by liquid scintillation counting; type: cell-based, HEK293
T1 sequence (P18507 whole entry): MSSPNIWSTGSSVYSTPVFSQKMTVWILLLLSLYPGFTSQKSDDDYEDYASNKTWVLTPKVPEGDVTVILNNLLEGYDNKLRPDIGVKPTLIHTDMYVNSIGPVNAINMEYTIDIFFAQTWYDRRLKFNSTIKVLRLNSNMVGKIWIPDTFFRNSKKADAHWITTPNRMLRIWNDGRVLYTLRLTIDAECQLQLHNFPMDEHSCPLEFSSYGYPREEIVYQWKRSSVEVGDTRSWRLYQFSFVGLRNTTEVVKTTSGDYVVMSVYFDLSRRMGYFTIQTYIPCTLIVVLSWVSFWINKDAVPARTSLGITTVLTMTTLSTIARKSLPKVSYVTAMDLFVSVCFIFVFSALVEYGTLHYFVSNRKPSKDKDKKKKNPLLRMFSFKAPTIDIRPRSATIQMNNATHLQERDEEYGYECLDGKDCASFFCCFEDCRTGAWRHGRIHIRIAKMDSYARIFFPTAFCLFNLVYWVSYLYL
T1 sequence (P28472 whole entry): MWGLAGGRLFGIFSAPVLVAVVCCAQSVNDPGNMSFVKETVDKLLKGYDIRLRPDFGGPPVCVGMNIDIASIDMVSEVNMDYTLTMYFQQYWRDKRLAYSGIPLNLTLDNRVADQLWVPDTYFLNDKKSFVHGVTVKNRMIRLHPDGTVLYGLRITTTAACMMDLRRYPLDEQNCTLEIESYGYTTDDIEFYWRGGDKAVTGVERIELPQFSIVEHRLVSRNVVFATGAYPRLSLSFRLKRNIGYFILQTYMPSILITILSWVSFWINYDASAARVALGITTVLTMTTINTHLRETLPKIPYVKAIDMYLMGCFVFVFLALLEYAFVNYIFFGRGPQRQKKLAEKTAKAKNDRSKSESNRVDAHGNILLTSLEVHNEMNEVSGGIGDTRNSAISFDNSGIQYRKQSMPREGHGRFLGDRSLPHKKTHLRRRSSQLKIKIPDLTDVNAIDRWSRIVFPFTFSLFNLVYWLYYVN
T1 sequence (P31644 whole entry): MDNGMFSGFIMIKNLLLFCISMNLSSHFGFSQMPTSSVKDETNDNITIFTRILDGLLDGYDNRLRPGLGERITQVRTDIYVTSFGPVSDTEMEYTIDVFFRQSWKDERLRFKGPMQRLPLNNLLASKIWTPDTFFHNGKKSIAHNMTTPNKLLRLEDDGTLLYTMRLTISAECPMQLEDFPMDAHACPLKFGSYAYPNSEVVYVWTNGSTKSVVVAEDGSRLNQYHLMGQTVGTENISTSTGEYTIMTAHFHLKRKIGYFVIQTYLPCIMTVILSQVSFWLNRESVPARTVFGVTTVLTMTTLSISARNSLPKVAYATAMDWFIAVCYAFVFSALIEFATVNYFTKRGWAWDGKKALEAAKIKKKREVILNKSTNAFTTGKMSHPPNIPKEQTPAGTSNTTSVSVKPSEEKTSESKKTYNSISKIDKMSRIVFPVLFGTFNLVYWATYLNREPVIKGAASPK

[6] = biological target: T2, GABA-A receptor; alpha-3/beta-3/gamma-2 (Homo sapiens, UniProt P18507+P28472+P34903); assay: Displacement of [3H]flunitrazepam from human recombinant GABAA alpha-3-beta-3-gamma-2 receptor expressed in HEK cells by liquid scintillation counting; type: cell-based, HEK293
T2 sequence (P18507 whole entry): T1 sequence (P18507 whole entry)
T2 sequence (P28472 whole entry): T1 sequence (P28472 whole entry)
T2 sequence (P34903 whole entry): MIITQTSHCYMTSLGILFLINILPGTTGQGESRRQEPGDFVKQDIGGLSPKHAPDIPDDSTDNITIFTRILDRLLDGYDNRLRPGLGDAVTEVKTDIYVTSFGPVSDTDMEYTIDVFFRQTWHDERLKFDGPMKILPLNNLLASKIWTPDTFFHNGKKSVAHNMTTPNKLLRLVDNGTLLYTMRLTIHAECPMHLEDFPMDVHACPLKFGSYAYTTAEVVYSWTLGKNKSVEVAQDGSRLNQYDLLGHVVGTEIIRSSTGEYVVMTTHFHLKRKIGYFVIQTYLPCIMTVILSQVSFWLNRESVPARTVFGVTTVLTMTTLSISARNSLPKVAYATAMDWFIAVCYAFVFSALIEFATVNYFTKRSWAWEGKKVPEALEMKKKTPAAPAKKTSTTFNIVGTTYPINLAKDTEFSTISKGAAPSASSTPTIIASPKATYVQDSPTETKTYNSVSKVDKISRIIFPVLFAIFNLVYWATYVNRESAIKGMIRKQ

[7] = biological target: T3, GABA A receptor alpha-4/beta-3/gamma-2 (Homo sapiens, UniProt P18507+P28472+P48169); assay: Displacement of [3H]flunitrazepam from human recombinant GABAA alpha-4-beta-3-gamma-2 receptor expressed in HEK cells by liquid scintillation counting; type: cell-based, HEK293
[8] = biological target: T4, GABA-A receptor; alpha-1/beta-3/gamma-2 (Homo sapiens, UniProt P14867+P18507+P28472); assay: Displacement of [3H]flunitrazepam from human recombinant GABAA alpha-1-beta-3-gamma-2 receptor expressed in HEK cells by liquid scintillation counting; type: cell-based, HEK293
T4 sequence (P14867 whole entry): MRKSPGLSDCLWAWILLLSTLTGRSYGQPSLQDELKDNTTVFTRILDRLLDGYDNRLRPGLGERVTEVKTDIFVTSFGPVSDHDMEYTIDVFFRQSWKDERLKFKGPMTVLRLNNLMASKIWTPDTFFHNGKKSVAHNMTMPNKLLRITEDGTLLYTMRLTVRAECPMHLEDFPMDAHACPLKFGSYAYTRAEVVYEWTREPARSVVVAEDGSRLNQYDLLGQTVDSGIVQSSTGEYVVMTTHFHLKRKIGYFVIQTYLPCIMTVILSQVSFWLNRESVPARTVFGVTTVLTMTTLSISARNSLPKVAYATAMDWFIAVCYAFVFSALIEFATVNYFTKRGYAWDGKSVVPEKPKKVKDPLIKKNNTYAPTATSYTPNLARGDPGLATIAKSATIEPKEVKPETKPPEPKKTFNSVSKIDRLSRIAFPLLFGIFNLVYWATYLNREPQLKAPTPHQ
T4 sequence (P18507 whole entry): T1 sequence (P18507 whole entry)
T4 sequence (P28472 whole entry): T1 sequence (P28472 whole entry)

[9] = biological target: T5, GABA-A receptor; alpha-2/beta-3/gamma-2 (Homo sapiens, UniProt P18507+P28472+P47869); assay: Displacement of [3H]flunitrazepam from human recombinant GABAA alpha-2-beta-3-gamma-2 receptor expressed in HEK cells by liquid scintillation counting; type: cell-based, HEK293
T5 sequence (P18507 whole entry): T1 sequence (P18507 whole entry)
T5 sequence (P28472 whole entry): T1 sequence (P28472 whole entry)
T5 sequence (P47869 whole entry): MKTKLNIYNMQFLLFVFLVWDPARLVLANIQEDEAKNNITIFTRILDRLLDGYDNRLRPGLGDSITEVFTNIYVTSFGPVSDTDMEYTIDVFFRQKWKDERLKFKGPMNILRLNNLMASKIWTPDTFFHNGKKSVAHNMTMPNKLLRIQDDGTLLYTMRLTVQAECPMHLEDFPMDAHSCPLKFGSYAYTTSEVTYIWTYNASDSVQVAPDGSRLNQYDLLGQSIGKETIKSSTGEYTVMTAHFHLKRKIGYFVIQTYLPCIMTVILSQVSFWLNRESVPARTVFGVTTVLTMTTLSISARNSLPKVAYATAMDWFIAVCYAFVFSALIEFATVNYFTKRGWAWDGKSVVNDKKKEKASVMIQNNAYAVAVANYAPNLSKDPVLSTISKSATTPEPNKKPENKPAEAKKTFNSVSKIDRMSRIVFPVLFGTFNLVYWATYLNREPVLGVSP

[10] = biological target: GABA-A receptor; alpha-2/beta-3/gamma-2 (Homo sapiens) (UniProt P18507+P28472+P47869); assay: Agonist activity at human recombinant GABAA alpha-2-beta-3-gamma-2 receptor expressed in Xenopus oocytes at 1 to 10 uM by patch clamp technique; type: functional, cell-based; conditions: Oocyte
[11] = biological target: T3, GABA A receptor alpha-4/beta-3/gamma-2; assay: Agonist activity at human recombinant GABAA alpha-4-beta-3-gamma-2 receptor expressed in Xenopus oocytes at 1 to 10 uM by patch clamp technique; type: functional, cell-based; conditions: Oocyte

T3 sequence (P48169 whole entry, one chain of several): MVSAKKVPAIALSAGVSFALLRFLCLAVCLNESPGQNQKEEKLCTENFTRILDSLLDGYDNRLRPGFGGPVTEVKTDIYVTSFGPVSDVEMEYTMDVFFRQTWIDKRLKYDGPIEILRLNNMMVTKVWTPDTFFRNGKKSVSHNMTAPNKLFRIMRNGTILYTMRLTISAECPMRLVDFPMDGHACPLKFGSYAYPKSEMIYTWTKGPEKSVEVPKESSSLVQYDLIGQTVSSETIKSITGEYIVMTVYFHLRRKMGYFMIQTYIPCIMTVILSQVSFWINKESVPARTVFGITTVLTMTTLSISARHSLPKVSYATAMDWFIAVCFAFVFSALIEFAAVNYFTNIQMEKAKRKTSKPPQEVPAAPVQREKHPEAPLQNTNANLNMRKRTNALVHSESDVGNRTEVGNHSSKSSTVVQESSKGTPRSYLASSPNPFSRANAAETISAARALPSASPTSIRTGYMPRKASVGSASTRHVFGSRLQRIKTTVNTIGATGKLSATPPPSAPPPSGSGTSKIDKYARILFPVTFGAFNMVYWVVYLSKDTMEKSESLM
Chain of GABA-A receptor; alpha-6/beta-3/gamma-2 (Q16445 whole entry, one chain of several): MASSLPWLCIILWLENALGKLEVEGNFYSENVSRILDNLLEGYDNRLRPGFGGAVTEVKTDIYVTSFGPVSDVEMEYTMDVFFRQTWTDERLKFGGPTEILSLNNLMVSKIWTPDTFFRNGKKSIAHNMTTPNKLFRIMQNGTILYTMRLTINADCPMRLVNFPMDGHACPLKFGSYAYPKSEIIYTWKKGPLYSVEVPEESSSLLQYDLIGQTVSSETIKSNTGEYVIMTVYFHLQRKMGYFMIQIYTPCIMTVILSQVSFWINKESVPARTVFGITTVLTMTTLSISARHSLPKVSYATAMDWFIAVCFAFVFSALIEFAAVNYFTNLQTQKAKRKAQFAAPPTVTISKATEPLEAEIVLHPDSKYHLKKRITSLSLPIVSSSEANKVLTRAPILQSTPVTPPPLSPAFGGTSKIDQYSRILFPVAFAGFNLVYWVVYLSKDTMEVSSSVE

SMILES	Activity [1] [%]	Activity [2] [%]	Activity [3] [%]	Ki [4] [µM]	Ki [5] [µM]	Ki [6] [µM]	Ki ([7]; read-out: Ki) [µM]	Ki [8] [µM]	Ki [9] [µM]	Ki ([7]; hek293)	Activity [10] [%]	Activity [11] [%]
CCOC(=O)c1ncn2c1CN(C)C(=O)c1cc(F)ccc1-2	96	99	118									
CC(C)(C)OC(=O)c1cc2c(cn1)[nH]c1ccc(C#Cc3ccc4[nH]c5cnc(C(=O)OC(C)(C)C)cc5c4c3)cc12				> 4	> 0.3	0.1	> 0.3	0.03	0.124			
CCC(C)OC(=O)c1cc2c(cn1)[nH]c1ccccc12 (stereo unspecified)				> 2	0.216	0.116		0.018	0.06	Not Active		
O=C(OCC(F)(F)F)c1cc2c(cn1)[nH]c1ccccc12				> 2	0.126	0.0417	> 0.5	0.003	0.0245			
CCCC(=O)c1cc2c(cn1)[nH]c1ccc(F)cc12				> 2.5	0.254	0.04		0.0037	0.027	Not Active		
CCOC(=O)c1ncc2[nH]c3cccc(OC(C)C)c3c2c1C	96											
CC(C)(C)OC(=O)c1cc2c3ccccc3nc-2c[nH]1	88	96	108				1				99	107
C[C@H](OC(=O)c1cc2c(cn1)[nH]c1ccccc12)C(F)(F)F				> 2	1.85	0.172	> 3	0.09	0.931			
C[Si](C)(C)C#Cc1ccc2[nH]c3cnc(C(=O)OCC(F)(F)F)cc3c2c1				> 3	1.44	0.088	0.2	0.017	0.059			
